Measurements from ChEMBL document CHEMBL3525955, “Glucuronidation of the red clover isoflavone irilone by liver microsomes from different species and human UDP-glucuronosyltransferases” (Drug Metab Dispos, 2011).
pKi: −log10 of the molar value.

Experiments:
Liver microsome = assay: Intrinsic clearance in human liver microsomes incubated for 5 mins prior to UDPGA addition measured after 90 mins; type: ADME; details: 1.5 h
[1] = molecular target: T1, UDP-glucuronosyltransferase 1A10 (Homo sapiens, UniProt Q9HAW8); assay: Substrate inhibition of human recombinant UGT1A10 assessed as IRI-O-5-monoglucuronide formation incubated for 5 mins prior to UDPGA addition measured after 90 mins by Eadie-Hoftsee plot analysis; type: ADME
T1 sequence (Q9HAW8 whole entry): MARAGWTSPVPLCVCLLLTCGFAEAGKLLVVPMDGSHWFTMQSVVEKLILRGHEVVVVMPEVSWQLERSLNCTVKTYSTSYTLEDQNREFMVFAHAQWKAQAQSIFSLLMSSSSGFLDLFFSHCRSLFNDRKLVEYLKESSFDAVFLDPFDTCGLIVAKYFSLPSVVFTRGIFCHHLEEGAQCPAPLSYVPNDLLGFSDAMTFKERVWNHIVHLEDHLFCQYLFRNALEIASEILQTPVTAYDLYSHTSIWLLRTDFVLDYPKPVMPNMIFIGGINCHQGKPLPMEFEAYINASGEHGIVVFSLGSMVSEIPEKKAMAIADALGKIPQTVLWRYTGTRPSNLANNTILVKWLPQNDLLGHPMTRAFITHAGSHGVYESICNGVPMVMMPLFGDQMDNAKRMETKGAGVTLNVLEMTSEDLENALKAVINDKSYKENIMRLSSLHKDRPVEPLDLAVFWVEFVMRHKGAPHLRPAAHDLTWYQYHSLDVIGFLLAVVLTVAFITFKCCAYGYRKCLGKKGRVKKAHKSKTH

[2] = molecular target: T1, UDP-glucuronosyltransferase 1A10; assay: Activity of human recombinant UGT1A10 assessed as intrinsic clearance incubated for 5 mins prior to UDPGA addition measured after 90 mins; type: ADME; details: recombinant enzyme, 1.5 h
[3] = molecular target: T2, UDP-glucuronosyltransferase 1A1 (Homo sapiens, UniProt P22309); assay: Drug metabolism assessed as human recombinant UGT1A1-mediated irilone-O-5-monoglucuronide formation at 25 uM incubated for 5 mins prior to UDPGA addition measured after 90 mins by HPLC-DAD analysis; type: ADME; details: recombinant enzyme, 1.5 h
T2 sequence (P22309 whole entry): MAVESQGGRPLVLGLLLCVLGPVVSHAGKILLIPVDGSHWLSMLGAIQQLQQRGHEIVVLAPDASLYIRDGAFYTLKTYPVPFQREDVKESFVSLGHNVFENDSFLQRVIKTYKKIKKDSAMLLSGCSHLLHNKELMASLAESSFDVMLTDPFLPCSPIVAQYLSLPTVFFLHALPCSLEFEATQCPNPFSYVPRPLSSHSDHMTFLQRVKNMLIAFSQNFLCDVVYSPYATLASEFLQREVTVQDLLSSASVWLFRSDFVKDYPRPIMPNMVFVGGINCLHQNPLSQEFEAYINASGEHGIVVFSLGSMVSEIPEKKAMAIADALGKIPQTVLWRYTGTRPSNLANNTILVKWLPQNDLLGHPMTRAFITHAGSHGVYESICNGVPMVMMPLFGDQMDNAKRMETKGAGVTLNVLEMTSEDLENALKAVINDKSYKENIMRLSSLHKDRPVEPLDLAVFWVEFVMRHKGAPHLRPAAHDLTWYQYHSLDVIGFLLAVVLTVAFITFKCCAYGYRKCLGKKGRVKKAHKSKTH

[4] = molecular target: T3, UDP-glucuronosyltransferase 2B15 (Homo sapiens, UniProt P54855); assay: Drug metabolism assessed as human recombinant UGT2B15-mediated glucuronidation incubated for 5 mins prior to UDPGA addition measured after 90 mins by HPLC-DAD analysis; type: ADME; details: recombinant enzyme, 1.5 h
T3 sequence (P54855 whole entry): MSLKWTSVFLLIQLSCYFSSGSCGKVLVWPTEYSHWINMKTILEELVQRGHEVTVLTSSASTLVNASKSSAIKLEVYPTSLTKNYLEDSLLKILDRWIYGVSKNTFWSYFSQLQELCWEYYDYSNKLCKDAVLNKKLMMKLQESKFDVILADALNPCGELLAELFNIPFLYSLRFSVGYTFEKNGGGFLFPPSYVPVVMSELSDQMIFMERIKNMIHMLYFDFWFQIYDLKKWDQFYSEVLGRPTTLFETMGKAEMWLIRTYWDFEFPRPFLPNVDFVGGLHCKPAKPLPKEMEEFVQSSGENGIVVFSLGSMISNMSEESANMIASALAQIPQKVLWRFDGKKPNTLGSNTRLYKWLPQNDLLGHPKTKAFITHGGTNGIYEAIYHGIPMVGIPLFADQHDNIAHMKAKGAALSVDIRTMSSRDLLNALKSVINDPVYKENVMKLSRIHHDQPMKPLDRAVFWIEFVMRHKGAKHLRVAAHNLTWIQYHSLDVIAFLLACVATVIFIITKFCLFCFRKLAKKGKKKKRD

[5] = molecular target: T4, UDP-glucuronosyltransferase 1A8 (Homo sapiens, UniProt Q9HAW9); assay: Substrate inhibition of human recombinant UGT1A8 assessed as IRI-O-4'-monoglucuronide formation incubated for 5 mins prior to UDPGA addition measured after 90 mins by Eadie-Hoftsee plot analysis; type: ADME
T4 sequence (Q9HAW9 whole entry): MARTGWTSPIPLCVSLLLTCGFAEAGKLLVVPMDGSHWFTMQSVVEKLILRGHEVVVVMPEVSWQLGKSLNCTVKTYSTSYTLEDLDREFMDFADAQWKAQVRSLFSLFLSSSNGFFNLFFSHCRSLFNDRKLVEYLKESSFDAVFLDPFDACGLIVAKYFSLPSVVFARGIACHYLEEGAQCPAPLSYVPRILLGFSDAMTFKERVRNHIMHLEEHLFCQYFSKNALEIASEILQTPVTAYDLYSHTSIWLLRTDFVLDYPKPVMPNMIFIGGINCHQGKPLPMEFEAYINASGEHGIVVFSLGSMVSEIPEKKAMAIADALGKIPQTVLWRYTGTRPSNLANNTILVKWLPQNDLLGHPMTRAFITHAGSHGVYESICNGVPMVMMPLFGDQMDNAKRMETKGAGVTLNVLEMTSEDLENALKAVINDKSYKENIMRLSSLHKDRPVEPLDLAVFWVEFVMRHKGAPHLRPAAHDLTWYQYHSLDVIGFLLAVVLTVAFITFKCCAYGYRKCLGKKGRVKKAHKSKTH

[6] = molecular target: T1, UDP-glucuronosyltransferase 1A10; assay: Substrate inhibition of human recombinant UGT1A10 assessed as IRI-O-4'-monoglucuronide formation incubated for 5 mins prior to UDPGA addition measured after 90 mins by Eadie-Hoftsee plot analysis; type: ADME
[7] = Drug metabolism in pig liver microsomes assessed as substrate inhibition of IRI-O-4'-monoglucuronide formation incubated for 5 mins prior to UDPGA addition measured after 90 mins by Eadie-Hoftsee plot analysis; type: ADME, Sus scrofa
[8] = molecular target: T2, UDP-glucuronosyltransferase 1A1; assay: Drug metabolism assessed as human recombinant UGT1A1-mediated irilone-O-4'-monoglucuronide formation at 25 uM incubated for 5 mins prior to UDPGA addition measured after 90 mins by HPLC-DAD analysis; type: ADME; details: recombinant enzyme, 1.5 h

CLH (Liver microsome): 48.5 mL/mg/min
Ki [1]: Not Active
CL [2]: 99.9 mL/mg/min
Drug metabolism [3]: metabolite_detected
Drug metabolism [4]: metabolite_not_detected
pKi [5]: 4.63
pKi [6]: 3.92
pKi [7]: 4.31
Drug metabolism [8]: metabolite_detected
Structure (SMILES): O=c1c(-c2ccc(O)cc2)coc2cc3c(c(O)c12)OCO3
